Assay [1] concerns the target 5'-AMP-activated protein kinase catalytic subunit alpha-1 (Homo sapiens) (UniProt Q13131). Put plainly: Inhibition of AMPK-alpha1 (unknown origin) assessed as residual activity at 100 nM by KINOMEscan analysis relative to control.
Assay [2] has as its target T1, Cyclin-dependent kinase 11A (Homo sapiens) (UniProt Q9UQ88).
T1 sequence (whole entry): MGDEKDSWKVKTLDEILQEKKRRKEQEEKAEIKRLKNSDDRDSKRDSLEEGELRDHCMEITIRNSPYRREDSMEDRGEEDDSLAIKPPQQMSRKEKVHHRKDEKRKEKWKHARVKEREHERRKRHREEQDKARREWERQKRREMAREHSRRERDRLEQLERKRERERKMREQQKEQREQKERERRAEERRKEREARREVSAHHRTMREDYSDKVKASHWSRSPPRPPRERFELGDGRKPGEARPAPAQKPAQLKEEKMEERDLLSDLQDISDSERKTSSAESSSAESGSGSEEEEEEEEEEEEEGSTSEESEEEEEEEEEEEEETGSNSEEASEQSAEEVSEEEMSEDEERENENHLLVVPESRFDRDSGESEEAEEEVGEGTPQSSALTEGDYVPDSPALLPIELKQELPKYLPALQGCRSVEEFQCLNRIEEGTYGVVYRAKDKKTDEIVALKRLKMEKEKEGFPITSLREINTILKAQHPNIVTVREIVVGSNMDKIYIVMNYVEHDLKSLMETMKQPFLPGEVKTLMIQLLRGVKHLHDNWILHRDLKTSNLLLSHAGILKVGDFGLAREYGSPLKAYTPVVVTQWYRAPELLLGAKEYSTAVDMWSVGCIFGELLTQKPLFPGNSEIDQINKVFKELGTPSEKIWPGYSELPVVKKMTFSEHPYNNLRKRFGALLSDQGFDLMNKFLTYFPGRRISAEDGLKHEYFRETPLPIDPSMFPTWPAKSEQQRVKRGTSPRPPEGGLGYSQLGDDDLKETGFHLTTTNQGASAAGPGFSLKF
Put plainly: Inhibition of CDC2L2 (unknown origin) assessed as residual activity at 100 nM by KINOMEscan analysis relative to control.

In assay [3] the target is Death-associated protein kinase 3 (Homo sapiens) (UniProt O43293). Nature of the assay: Inhibition of DAPK3 (unknown origin) assessed as residual activity at 100 nM by KINOMEscan analysis relative to control.
Assay [4] has as its target Homeodomain-interacting protein kinase 3 (Homo sapiens) (UniProt Q9H422). Put plainly: Inhibition of HIPK3 (unknown origin) assessed as residual activity at 100 nM by KINOMEscan analysis relative to control.
In assay [5] the test system is Phosphatidylinositol 4,5-bisphosphate 3-kinase catalytic subunit alpha isoform (Homo sapiens), P42336 [E545A]. Put plainly: Inhibition of PIK3CA E545A mutant (unknown origin) assessed as residual activity at 100 nM by KINOMEscan analysis relative to control.
Assay [6] concerns the target Protein-tyrosine kinase 2-beta (Homo sapiens) (UniProt Q14289). Put plainly: Inhibition of PYK2 (unknown origin) assessed as residual activity at 100 nM by KINOMEscan analysis relative to control.
Assay [7] concerns the target T2, Dual specificity protein kinase TTK (Homo sapiens) (UniProt P33981).
T2 sequence (whole entry): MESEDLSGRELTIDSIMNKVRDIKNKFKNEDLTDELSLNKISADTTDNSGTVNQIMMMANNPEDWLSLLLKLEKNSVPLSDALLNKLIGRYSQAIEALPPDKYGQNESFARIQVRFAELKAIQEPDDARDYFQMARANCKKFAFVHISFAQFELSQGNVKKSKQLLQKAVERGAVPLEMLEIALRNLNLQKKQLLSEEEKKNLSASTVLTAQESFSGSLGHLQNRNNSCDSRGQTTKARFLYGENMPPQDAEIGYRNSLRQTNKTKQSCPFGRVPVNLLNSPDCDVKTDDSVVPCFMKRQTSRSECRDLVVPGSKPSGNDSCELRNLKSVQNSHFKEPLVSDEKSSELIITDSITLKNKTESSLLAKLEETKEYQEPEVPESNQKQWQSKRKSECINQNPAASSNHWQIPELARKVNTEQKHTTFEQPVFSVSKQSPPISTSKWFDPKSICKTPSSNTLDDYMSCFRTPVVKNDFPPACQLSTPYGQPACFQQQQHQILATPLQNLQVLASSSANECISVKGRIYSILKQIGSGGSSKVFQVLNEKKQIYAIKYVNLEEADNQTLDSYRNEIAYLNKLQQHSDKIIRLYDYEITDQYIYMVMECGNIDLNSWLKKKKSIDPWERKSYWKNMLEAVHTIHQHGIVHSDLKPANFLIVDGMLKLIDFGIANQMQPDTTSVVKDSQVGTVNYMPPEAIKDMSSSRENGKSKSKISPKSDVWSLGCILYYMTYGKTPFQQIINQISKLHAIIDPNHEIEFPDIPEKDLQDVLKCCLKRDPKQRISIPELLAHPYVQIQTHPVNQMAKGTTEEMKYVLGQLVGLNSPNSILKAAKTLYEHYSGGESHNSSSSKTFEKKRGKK
Put plainly: Inhibition of TTK (unknown origin) assessed as residual activity at 100 nM by KINOMEscan analysis relative to control.

The structures appear in SMILES notation.

Chain of 5'-AMP-activated protein kinase catalytic subunit alpha-1 (Homo sapiens) (Q13131 whole entry, looked up): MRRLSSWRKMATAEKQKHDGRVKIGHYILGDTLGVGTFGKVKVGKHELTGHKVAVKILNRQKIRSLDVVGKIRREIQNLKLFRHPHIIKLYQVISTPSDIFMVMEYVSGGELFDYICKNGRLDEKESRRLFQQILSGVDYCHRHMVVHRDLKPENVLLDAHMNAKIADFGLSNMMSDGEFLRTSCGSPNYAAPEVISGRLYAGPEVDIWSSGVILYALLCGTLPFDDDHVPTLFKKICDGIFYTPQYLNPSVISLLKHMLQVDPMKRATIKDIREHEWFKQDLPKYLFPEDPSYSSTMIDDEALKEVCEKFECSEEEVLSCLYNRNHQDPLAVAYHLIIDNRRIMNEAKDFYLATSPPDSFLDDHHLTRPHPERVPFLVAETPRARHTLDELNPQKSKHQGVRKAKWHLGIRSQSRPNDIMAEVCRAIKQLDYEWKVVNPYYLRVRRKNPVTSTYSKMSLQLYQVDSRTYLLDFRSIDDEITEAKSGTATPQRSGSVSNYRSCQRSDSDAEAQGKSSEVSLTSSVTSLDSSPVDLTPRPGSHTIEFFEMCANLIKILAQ
Chain of Protein-tyrosine kinase 2-beta (Homo sapiens) (Q14289 whole entry, looked up): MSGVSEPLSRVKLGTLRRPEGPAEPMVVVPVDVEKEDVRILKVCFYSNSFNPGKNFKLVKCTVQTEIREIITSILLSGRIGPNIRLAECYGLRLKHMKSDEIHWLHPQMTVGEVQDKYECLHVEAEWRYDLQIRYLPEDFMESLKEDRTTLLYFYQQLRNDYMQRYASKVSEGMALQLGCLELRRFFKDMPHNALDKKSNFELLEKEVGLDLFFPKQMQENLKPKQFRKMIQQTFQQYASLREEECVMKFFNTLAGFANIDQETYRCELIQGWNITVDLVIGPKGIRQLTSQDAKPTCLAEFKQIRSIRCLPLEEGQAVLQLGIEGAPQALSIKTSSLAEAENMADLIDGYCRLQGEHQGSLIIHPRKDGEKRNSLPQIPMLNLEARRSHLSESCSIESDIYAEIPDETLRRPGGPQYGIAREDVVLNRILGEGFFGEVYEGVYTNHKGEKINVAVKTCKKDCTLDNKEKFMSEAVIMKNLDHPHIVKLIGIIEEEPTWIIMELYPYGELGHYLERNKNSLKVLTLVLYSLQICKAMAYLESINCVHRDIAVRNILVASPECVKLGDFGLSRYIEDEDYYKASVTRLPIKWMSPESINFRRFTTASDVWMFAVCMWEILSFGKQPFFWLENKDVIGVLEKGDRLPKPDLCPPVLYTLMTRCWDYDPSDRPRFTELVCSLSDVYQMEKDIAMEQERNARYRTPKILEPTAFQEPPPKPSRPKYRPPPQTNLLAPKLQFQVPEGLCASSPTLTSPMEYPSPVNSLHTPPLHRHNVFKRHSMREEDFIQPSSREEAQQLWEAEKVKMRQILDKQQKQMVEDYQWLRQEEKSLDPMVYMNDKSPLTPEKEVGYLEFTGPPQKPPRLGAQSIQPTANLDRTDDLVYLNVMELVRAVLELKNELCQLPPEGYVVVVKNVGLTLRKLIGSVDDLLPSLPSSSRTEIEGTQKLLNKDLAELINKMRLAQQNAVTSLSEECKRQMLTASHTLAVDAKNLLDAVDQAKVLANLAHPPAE
Chain of Death-associated protein kinase 3 (Homo sapiens) (O43293 whole entry, looked up): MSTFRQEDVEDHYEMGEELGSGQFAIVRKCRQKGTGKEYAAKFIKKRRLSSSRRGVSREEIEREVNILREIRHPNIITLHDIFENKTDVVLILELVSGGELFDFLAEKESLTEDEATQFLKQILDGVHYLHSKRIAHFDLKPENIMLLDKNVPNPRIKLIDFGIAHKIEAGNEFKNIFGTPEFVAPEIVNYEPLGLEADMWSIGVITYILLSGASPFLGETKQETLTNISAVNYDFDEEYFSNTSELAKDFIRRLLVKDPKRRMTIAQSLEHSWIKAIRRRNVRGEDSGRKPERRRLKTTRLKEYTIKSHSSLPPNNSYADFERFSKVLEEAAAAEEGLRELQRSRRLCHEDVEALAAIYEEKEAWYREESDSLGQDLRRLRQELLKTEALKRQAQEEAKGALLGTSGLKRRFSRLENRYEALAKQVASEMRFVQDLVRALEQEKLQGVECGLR
Chain of Phosphatidylinositol 4,5-bisphosphate 3-kinase catalytic subunit alpha isoform (Homo sapiens), P42336 [E545A] (P42336 whole entry E545A, canonical isoform): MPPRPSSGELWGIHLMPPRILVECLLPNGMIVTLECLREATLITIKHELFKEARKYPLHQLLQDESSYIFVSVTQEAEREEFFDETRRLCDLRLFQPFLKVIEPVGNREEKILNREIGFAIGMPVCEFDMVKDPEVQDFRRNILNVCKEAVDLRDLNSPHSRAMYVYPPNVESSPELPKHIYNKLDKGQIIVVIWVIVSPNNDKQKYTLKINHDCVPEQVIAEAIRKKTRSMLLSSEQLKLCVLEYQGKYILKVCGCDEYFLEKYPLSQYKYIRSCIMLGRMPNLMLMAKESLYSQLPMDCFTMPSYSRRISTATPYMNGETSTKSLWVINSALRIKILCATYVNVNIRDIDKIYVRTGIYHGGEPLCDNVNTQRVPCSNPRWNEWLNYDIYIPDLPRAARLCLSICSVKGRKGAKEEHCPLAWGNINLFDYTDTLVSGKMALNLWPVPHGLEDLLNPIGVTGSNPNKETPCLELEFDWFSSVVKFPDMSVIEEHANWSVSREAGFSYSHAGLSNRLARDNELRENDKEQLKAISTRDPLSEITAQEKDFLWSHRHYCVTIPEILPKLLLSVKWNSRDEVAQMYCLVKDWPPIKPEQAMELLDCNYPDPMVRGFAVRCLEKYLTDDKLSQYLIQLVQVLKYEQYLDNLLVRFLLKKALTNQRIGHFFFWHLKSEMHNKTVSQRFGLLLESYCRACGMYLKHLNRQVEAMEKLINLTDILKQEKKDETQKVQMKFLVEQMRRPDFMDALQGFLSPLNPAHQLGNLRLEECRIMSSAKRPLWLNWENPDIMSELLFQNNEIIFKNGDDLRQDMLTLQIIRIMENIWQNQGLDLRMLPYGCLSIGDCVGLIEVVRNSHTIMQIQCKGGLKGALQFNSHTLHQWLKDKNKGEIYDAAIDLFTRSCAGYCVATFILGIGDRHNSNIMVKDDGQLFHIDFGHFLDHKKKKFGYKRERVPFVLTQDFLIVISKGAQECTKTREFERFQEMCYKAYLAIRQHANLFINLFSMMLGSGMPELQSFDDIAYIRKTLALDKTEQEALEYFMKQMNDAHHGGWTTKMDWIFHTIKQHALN
Chain of Homeodomain-interacting protein kinase 3 (Homo sapiens) (Q9H422 whole entry, looked up, canonical isoform): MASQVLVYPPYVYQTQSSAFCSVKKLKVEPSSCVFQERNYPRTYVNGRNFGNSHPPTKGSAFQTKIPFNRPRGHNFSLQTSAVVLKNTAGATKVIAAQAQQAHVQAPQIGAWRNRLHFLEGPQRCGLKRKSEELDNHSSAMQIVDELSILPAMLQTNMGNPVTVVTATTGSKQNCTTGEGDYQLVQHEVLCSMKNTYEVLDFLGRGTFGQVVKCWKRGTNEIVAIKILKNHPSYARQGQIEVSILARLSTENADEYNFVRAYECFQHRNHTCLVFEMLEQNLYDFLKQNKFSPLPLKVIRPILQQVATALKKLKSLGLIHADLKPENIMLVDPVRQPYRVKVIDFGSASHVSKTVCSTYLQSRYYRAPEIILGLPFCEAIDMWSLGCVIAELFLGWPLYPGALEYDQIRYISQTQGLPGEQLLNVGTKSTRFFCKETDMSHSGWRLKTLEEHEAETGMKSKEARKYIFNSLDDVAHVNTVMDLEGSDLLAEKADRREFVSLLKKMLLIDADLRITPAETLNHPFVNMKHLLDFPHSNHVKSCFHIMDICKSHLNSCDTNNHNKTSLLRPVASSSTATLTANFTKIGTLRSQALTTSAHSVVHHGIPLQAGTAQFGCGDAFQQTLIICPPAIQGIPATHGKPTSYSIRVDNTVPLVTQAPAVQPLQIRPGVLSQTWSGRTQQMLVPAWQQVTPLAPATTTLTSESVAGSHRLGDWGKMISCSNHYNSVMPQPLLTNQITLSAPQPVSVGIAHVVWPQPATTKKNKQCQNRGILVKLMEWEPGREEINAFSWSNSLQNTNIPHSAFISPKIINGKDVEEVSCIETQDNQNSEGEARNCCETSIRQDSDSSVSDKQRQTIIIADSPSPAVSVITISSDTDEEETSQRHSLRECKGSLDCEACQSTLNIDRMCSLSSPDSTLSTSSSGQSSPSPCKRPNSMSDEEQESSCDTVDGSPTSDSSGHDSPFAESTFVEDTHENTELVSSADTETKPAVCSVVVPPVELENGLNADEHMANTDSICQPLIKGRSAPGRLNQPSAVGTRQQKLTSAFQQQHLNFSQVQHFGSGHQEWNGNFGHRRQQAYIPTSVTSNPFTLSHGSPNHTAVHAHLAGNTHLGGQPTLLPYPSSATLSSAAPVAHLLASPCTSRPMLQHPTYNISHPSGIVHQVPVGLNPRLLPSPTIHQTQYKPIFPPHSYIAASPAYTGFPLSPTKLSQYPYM

Turning to `COc1cc2ncnc(N[C@H](C)c3cccc4ccccc34)c2cc1OC`, the Activity amounted to 92% in assay [1]; 82% in assay [2]; 100% in assay [3]; 88% in assay [4]; 93% in assay [5]; 100% in assay [6]. Further, the Activity in assay [7] worked out at 95%.

The record behind these values is ChEMBL document CHEMBL5678818, “Discovery of potent SOS1 inhibitors that block RAS activation via disruption of the RAS-SOS1 interaction” (Proc Natl Acad Sci U S A, 2019).
